# Test results as given in publication PMC5529566, “The cryo-EM structure of gastric H^+,K^+-ATPase with bound BYK99, a high-affinity member of K^+-competitive, imidazo[1,2-a]pyridine inhibitors” (Scientific Reports, 2017).
# How the values were obtained:
# H^+,K^+-ATPase D137I = H^+,K^+-ATPase D137I (Sus scrofa, UniProt P19156, D138I); assay: ATPase assay, D137I mutant
# H^+,K^+-ATPase WT = target: T1, H^+,K^+-ATPase WT (Sus scrofa, UniProt P19156); assay: K^+-competitive inhibition of H^+,K^+-ATPase activity, 96-well ATPase assay, wild-type; assay type: biochemical, pig; details: WT
# T1 construct: made in house; host or cells: HEK293S GnT1- cells (BacMam baculovirus transduction); permeabilised membrane fractions
# H^+,K^+-ATPase L139A = H^+,K^+-ATPase L139A (Sus scrofa, UniProt P19156, L140A); assay: ATPase assay, L139A mutant
# H^+,K^+-ATPase L809F = H^+,K^+-ATPase L809F (Sus scrofa, UniProt P19156, L810F); assay: ATPase assay, L809F mutant
# H^+,K^+-ATPase Y799F = H^+,K^+-ATPase Y799F (Sus scrofa, UniProt P19156, Y800F); assay: ATPase assay, Y799F mutant
# H^+,K^+-ATPase D136F = H^+,K^+-ATPase D136F (Sus scrofa, UniProt P19156, D137F); assay: ATPase assay, D136F mutant
# H^+,K^+-ATPase = H^+,K^+-ATPase (Sus scrofa, UniProt P19156); assay: Dose-dependent inhibition of H^+,K^+-ATPase activity in the presence of 10 mM KCl
# Experimental: Reactions were initiated by incubating at 37 °C using a thermal cycler, and maintained for 1 to 5 h (depending on the activity). Reactions were terminated by withdrawing 40 μL from the 80 μL reactant, and mixing with 80 μL of stop solution comprising 6% ascorbic acid and 2% ammonium molybdate in 1 N HCl, followed by the addition of 120 μL of 2% sodium arsenate, 2% sodium citrate, and 2% acetic acid. The amount of released inorganic phosphate was determined colorimetrically[39] from absorbance at 850 nm by the microplate reader (TECAN).
# H^+,K^+-ATPase D136I = H^+,K^+-ATPase D136I (Sus scrofa, UniProt P19156, D137I); assay: ATPase assay, D136I mutant
# H^+,K^+-ATPase L139I = H^+,K^+-ATPase L139I (Sus scrofa, UniProt P19156, L140I); assay: ATPase assay, L139I mutant
# Sequence of H^+,K^+-ATPase L139I (P19156 whole entry L140I): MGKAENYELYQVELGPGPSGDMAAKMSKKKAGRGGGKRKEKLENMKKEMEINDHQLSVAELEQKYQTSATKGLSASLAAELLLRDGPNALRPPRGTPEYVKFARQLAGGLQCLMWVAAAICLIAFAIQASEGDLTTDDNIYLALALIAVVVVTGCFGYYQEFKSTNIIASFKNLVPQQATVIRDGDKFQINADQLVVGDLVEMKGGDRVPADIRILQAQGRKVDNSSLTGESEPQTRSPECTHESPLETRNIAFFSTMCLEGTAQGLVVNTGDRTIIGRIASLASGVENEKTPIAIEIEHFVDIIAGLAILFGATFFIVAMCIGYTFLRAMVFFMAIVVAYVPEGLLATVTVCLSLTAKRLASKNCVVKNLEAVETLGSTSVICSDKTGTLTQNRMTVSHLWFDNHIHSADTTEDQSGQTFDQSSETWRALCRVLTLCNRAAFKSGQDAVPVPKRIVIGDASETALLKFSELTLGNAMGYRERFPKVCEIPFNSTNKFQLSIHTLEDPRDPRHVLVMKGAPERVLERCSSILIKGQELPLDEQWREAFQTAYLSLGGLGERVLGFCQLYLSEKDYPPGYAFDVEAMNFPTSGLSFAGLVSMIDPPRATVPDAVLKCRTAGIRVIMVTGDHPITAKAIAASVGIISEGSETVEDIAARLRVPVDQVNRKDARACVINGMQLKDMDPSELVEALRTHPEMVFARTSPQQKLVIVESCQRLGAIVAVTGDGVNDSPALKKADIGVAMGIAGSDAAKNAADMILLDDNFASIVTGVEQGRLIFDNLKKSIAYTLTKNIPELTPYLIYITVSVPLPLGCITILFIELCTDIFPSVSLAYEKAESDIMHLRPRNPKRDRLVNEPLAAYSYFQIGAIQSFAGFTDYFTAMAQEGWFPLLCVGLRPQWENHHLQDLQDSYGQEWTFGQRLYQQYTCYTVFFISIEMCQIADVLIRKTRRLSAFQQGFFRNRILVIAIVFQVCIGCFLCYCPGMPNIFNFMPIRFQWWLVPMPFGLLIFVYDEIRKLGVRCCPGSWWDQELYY
# Sequence of H^+,K^+-ATPase L139I (P18434 whole entry partner): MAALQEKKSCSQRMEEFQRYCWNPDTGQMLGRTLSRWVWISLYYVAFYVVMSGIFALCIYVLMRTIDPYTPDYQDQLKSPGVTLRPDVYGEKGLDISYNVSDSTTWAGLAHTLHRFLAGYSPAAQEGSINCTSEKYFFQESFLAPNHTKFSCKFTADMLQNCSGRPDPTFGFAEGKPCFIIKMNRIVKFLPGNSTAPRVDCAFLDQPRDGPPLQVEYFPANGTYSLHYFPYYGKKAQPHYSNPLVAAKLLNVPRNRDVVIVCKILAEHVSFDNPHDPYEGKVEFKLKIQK
# H^+,K^+-ATPase D137F = H^+,K^+-ATPase D137F (Sus scrofa, UniProt P19156, D138F); assay: ATPase assay, D137F mutant
# H^+,K^+-ATPase N138L = H^+,K^+-ATPase N138L (Sus scrofa, UniProt P19156, N139L); assay: ATPase assay, N138L mutant
# H^+,K^+-ATPase A335G = H^+,K^+-ATPase A335G (Sus scrofa, UniProt P19156, A336G); assay: ATPase assay, A335G mutant
# Sequence of H^+,K^+-ATPase A335G (P19156 whole entry A336G): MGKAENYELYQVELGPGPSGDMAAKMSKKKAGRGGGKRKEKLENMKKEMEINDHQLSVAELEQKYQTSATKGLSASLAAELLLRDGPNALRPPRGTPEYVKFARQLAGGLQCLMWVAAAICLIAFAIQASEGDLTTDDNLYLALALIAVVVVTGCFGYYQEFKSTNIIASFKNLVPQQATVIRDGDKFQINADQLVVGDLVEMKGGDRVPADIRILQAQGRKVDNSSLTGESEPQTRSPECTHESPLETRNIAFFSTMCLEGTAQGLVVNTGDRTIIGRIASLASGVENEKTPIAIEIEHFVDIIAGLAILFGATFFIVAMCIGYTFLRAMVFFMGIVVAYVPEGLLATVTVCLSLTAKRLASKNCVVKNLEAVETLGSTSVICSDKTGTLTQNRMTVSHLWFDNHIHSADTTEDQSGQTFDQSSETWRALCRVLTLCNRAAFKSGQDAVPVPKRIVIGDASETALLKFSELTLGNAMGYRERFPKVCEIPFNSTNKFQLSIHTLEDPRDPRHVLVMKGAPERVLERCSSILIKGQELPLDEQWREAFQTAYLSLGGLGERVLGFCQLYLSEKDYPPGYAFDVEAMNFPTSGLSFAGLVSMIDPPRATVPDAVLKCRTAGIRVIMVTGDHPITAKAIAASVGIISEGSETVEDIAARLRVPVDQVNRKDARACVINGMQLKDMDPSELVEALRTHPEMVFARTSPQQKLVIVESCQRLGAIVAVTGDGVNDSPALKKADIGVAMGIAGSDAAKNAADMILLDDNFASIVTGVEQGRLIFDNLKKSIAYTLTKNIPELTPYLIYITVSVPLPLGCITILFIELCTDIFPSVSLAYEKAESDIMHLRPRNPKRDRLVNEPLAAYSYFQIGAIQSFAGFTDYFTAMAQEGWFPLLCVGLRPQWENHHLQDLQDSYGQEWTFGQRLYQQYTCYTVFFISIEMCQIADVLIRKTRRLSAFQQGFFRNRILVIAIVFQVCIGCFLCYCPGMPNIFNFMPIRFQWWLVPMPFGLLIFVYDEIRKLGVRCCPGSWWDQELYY
# Sequence of H^+,K^+-ATPase A335G (P18434 whole entry partner): as the sequence (P18434 whole entry partner) above
# H^+,K^+-ATPase Y799A = H^+,K^+-ATPase Y799A (Sus scrofa, UniProt P19156, Y800A); assay: ATPase assay, Y799A mutant
# H^+,K^+-ATPase Y140A = H^+,K^+-ATPase Y140A (Sus scrofa, UniProt P19156, Y141A); assay: ATPase assay, Y140A mutant
# [1] = target: H^+,K^+-ATPase A335C/C813A (Sus scrofa, UniProt P19156, A336C/C814A); assay: ATPase assay, A335C/C813A mutant
# H^+,K^+-ATPase N138A = H^+,K^+-ATPase N138A (Sus scrofa, UniProt P19156, N139A); assay: ATPase assay, N138A mutant
# Sequence of H^+,K^+-ATPase N138A (P19156 whole entry N139A): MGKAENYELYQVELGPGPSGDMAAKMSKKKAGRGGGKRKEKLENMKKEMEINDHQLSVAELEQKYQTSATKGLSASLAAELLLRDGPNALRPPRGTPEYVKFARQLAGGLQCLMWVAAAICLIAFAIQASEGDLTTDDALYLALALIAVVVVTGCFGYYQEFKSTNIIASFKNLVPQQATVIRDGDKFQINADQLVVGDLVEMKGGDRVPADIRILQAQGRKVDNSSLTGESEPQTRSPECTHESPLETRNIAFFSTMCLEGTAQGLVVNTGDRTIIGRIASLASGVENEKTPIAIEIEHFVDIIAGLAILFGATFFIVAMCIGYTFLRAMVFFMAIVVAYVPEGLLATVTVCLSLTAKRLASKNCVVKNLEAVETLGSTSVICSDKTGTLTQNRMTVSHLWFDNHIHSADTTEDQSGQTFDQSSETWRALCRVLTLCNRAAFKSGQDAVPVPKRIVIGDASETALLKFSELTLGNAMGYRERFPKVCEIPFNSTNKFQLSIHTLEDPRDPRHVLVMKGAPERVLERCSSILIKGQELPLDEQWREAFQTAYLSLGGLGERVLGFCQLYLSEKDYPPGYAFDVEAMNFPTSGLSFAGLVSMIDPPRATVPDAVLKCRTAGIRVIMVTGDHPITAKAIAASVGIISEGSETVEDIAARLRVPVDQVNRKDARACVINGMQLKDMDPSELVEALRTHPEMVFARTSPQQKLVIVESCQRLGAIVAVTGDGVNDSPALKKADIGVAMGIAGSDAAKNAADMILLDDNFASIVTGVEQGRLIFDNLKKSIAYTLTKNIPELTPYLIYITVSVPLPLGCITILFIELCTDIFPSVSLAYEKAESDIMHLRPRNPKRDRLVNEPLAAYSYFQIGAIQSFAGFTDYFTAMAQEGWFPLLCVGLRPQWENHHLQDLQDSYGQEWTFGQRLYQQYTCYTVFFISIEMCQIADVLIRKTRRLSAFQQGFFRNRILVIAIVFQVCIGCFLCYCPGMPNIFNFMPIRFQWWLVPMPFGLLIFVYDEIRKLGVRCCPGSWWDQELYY
# Sequence of H^+,K^+-ATPase N138A (P18434 whole entry partner): as the sequence (P18434 whole entry partner) above
# H^+,K^+-ATPase N138F = H^+,K^+-ATPase N138F (Sus scrofa, UniProt P19156, N139F); assay: ATPase assay, N138F mutant
# H^+,K^+-ATPase D137A = H^+,K^+-ATPase D137A (Sus scrofa, UniProt P19156, D138A); assay: ATPase assay, D137A mutant
# H^+,K^+-ATPase Y140F = H^+,K^+-ATPase Y140F (Sus scrofa, UniProt P19156, Y141F); assay: ATPase assay, Y140F mutant
# H^+,K^+-ATPase Y140L = H^+,K^+-ATPase Y140L (Sus scrofa, UniProt P19156, Y141L); assay: ATPase assay, Y140L mutant
# H^+,K^+-ATPase D136A = H^+,K^+-ATPase D136A (Sus scrofa, UniProt P19156, D137A); assay: ATPase assay, D136A mutant
# H^+,K^+-ATPase D136L = H^+,K^+-ATPase D136L (Sus scrofa, UniProt P19156, D137L); assay: ATPase assay, D136L mutant
# H^+,K^+-ATPase N138I = H^+,K^+-ATPase N138I (Sus scrofa, UniProt P19156, N139I); assay: ATPase assay, N138I mutant
# H^+,K^+-ATPase L139F = H^+,K^+-ATPase L139F (Sus scrofa, UniProt P19156, L140F); assay: ATPase assay, L139F mutant
# H^+,K^+-ATPase L141I = H^+,K^+-ATPase L141I (Sus scrofa, UniProt P19156, L142I); assay: ATPase assay, L141I mutant
# H^+,K^+-ATPase D137L = H^+,K^+-ATPase D137L (Sus scrofa, UniProt P19156, D138L); assay: ATPase assay, D137L mutant
# Sequence of H^+,K^+-ATPase D137L (P19156 whole entry D138L): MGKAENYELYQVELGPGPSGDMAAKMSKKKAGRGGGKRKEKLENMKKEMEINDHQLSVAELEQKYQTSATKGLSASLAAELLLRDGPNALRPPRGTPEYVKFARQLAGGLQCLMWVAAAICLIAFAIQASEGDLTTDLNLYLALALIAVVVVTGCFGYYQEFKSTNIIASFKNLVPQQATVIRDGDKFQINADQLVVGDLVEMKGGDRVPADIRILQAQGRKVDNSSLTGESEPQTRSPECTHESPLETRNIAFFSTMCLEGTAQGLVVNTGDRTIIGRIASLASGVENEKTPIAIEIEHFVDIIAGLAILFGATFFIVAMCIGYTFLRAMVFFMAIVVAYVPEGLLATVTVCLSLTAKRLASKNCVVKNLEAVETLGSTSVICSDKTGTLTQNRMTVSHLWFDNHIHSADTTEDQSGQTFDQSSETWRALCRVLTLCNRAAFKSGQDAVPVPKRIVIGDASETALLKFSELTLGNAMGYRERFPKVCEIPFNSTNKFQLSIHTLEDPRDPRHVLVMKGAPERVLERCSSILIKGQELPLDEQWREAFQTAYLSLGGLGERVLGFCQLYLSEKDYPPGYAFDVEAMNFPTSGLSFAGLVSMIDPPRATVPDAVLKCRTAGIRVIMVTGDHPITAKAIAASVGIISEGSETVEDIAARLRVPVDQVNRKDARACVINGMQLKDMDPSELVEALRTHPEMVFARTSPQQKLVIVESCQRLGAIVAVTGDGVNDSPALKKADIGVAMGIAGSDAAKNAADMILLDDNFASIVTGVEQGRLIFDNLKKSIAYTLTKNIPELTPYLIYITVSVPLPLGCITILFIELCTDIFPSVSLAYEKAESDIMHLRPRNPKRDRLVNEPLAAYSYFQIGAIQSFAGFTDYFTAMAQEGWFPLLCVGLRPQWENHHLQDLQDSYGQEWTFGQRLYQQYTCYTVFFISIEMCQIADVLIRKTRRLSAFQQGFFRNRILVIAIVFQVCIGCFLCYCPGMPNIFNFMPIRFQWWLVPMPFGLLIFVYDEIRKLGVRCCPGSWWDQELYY
# Sequence of H^+,K^+-ATPase D137L (P18434 whole entry partner): as the sequence (P18434 whole entry partner) above
# H^+,K^+-ATPase Y140I = H^+,K^+-ATPase Y140I (Sus scrofa, UniProt P19156, Y141I); assay: ATPase assay, Y140I mutant
structure (smiles),measurement,setting,value
N#CCc1cnc2c(OCc3ccccc3)cccn12 [SCH-Me^−],Ki,"H^+,K^+-ATPase D137I",170 ± 40 µM
same,-fold increase in K i compared with wild-type,"H^+,K^+-ATPase D137I; D137I",16 fold
same,-fold increase in K i compared with wild-type,"H^+,K^+-ATPase WT",1.0 fold
same,Ki,"H^+,K^+-ATPase WT; global fitting, mean ± SEM",11 ± 0.1 µM
same,Ki,"H^+,K^+-ATPase L139A",8.7 ± 0.7 µM
same,-fold increase in K i compared with wild-type,"H^+,K^+-ATPase L139A; L139A",0.8 fold
same,Ki,"H^+,K^+-ATPase L809F",110 ± 20 µM
same,-fold increase in K i compared with wild-type,"H^+,K^+-ATPase L809F; L809F",10 fold
same,Ki,"H^+,K^+-ATPase Y799F",31 ± 3 µM
same,-fold increase in K i compared with wild-type,"H^+,K^+-ATPase Y799F; Y799F",2.8 fold
same,Ki,"H^+,K^+-ATPase D136F",6.7 ± 0.5 µM
same,-fold increase in K i compared with wild-type,"H^+,K^+-ATPase D136F; D136F",0.6 fold
same,IC50,"H^+,K^+-ATPase",54 µM
same,Ki,"H^+,K^+-ATPase D136I",6.8 ± 0.6 µM
same,-fold increase in K i compared with wild-type,"H^+,K^+-ATPase D136I; D136I",0.6 fold
same,Ki,"H^+,K^+-ATPase L139I",2.3 ± 0.3 µM
same,-fold increase in K i compared with wild-type,"H^+,K^+-ATPase L139I; L139I",0.2 fold
same,Ki,"H^+,K^+-ATPase D137F",34 ± 7 µM
same,-fold increase in K i compared with wild-type,"H^+,K^+-ATPase D137F; D137F",3.1 fold
same,Ki,"H^+,K^+-ATPase N138L",23 ± 7 µM
same,-fold increase in K i compared with wild-type,"H^+,K^+-ATPase N138L; N138L",2.1 fold
same,Ki,"H^+,K^+-ATPase A335G",1.6 ± 0.2 µM
same,-fold increase in K i compared with wild-type,"H^+,K^+-ATPase A335G; A335G",0.15 fold
same,Ki,"H^+,K^+-ATPase Y799A",740 ± 170 µM
same,-fold increase in K i compared with wild-type,"H^+,K^+-ATPase Y799A; Y799A",67 fold
same,Ki,"H^+,K^+-ATPase Y140A",13 ± 1 µM
same,-fold increase in K i compared with wild-type,"H^+,K^+-ATPase Y140A; Y140A",1.2 fold
same,Ki,[1],4200 ± 2300 µM
same,-fold increase in K i compared with wild-type,[1]; A335C/C813A,382 fold
same,Ki,"H^+,K^+-ATPase N138A",0.56 ± 0.08 µM
same,-fold increase in K i compared with wild-type,"H^+,K^+-ATPase N138A; N138A",0.05 fold
same,Ki,"H^+,K^+-ATPase N138F",320 ± 300 µM
same,-fold increase in K i compared with wild-type,"H^+,K^+-ATPase N138F; N138F",29 fold
same,Ki,"H^+,K^+-ATPase D137A",61 ± 7 µM
same,-fold increase in K i compared with wild-type,"H^+,K^+-ATPase D137A; D137A",5.5 fold
same,Ki,"H^+,K^+-ATPase Y140F",21 ± 3 µM
same,-fold increase in K i compared with wild-type,"H^+,K^+-ATPase Y140F; Y140F",1.9 fold
same,Ki,"H^+,K^+-ATPase Y140L",3.7 ± 0.4 µM
same,-fold increase in K i compared with wild-type,"H^+,K^+-ATPase Y140L; Y140L",0.3 fold
same,Ki,"H^+,K^+-ATPase D136A",11 ± 1 µM
same,-fold increase in K i compared with wild-type,"H^+,K^+-ATPase D136A; D136A",1.0 fold
same,Ki,"H^+,K^+-ATPase D136L",5.4 ± 0.5 µM
same,-fold increase in K i compared with wild-type,"H^+,K^+-ATPase D136L; D136L",0.5 fold
same,Ki,"H^+,K^+-ATPase N138I",0.95 ± 0.23 µM
same,-fold increase in K i compared with wild-type,"H^+,K^+-ATPase N138I; N138I",0.09 fold
same,Ki,"H^+,K^+-ATPase L139F",13 ± 1 µM
same,-fold increase in K i compared with wild-type,"H^+,K^+-ATPase L139F; L139F",1.2 fold
same,Ki,"H^+,K^+-ATPase L141I",7.3 ± 0.8 µM
same,-fold increase in K i compared with wild-type,"H^+,K^+-ATPase L141I; L141I",0.7 fold
same,Ki,"H^+,K^+-ATPase D137L",270 ± 100 µM
same,-fold increase in K i compared with wild-type,"H^+,K^+-ATPase D137L; D137L",25 fold
same,Ki,"H^+,K^+-ATPase Y140I",5 ± 0.8 µM
same,-fold increase in K i compared with wild-type,"H^+,K^+-ATPase Y140I; Y140I",0.5 fold
